From article PMC7822874, “Chemoprotective antimalarials identified through quantitative high-throughput screening of Plasmodium blood and liver stage parasites” (Scientific Reports, 2021)
Where “and” joins values, the source holds several entries; their conditions need not be identical. Identical values can stand only once. Like-named read-outs stand apart in the source and are kept apart here.

Assays:
[1] = test system: T1, Plasmodium falciparum Dd2-attB-ScDHODH (transgenic line expressing yeast DHODH), asexual blood stages; experiment: organism not typed; parameters: replicate k of 3 (each line is one of three independent assays; the three lines of one compound and parasite line follow each other); conditions: 72 h, n = 1; for AC50: read-out: Individual replicates / Log AC50 (converted)
T1 construct: Dd2-attB-ScDHODH, the transgenic line that expresses yeast DHODH
In short: (§1)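 We compare activity in parasites carrying fumarate-using yeast DHODH with that in the parental line; mETC or parasite DHODH inhibitors are bypassed by this enzyme. Data come from three independent assays, analysed by two-sided Student's t-tests.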

[2] = test system: T2, Plasmodium falciparum Dd2-attB (parental line), asexual blood stages; experiment: microbe, parasite or virus in culture; parameters: species or system P. falciparum Dd2-attB in human erythrocytes; SYBR Green-I proliferation assay, Dd2-attB parental line, asexual blood stages; conditions: Plasmodium falciparum, DD2, Erythrocyte, 72 h, read-out: Calculated / Average Log AC50 (M), mean of replicates, 72 h (converted)
T2 construct: Dd2-attB, the isogenic parental line

[3] = test system: T2, Plasmodium falciparum Dd2-attB (parental line), asexual blood stages; experiment: microbe, parasite or virus in culture; parameters: replicate k of 3 (each line is one of three independent assays; the three lines of one compound and parasite line follow each other); conditions: n = 1; for Individual replicates / Log AC50 (M): 72 h; for AC50: Plasmodium falciparum, DD2, 72 h, read-out: Individual replicates / Log AC50 (converted)
In short: as §1

Row | Structure (SMILES) | Individual replicates / Log AC50 (M) [1] | AC50 [2] [M] | Individual replicates / Log AC50 (M) [3] | AC50 [1] [µM] | AC50 [3] [µM]
1 | O=[S+]([O-])(c1nc2ccccc2[nH]1)N(CCc1ccccc1)CCN1CCCCC1 [NCGC00389114-01] | -5.6986 Log AC50 (M) and -5.2486 Log AC50 (M) | 4.15e-06 | -5.5486 Log AC50 (M) (2×) and -5.0486 Log AC50 (M) |  | 
2 | O=C(O)c1ccc(O)c2ncc(NCC3CCCN(CCc4ccccc4)C3)cc12 (stereo not drawn) [NCGC00241759-01] | -4.8486 Log AC50 (M) | 1.04e-05 | -5.0486 Log AC50 (M) | 8.94 | 7.1
3 | Oc1ccc(CNc2cc(C(F)(F)F)ccn2)c2cccnc12 [NCGC00241027-01] | -4.8486 Log AC50 (M) | 1e-05 | -5.0986 Log AC50 (M) and -5.0486 Log AC50 (M) | 7.1 | 14.2
4 | NC1CCN(c2cnc3c(O)ccc(C(=O)O)c3c2)CC1 [NCGC00241035-01] |  | 1.42e-05 | -4.7986 Log AC50 (M) and -4.9986 Log AC50 (M) | 17.8 | 17.8
5 | O=[N+]([O-])c1ccccc1NCc1ccc(O)c2ncccc12 [NCGC00184896-01] | -5.0486 Log AC50 (M) | 9.65e-06 | -4.7986 Log AC50 (M) and -5.0986 Log AC50 (M) and -5.1486 Log AC50 (M) | 12.6 | 
6 | CC(NCCN1CCCCC1)c1cnn(-c2cc(CO)ccn2)c1-c1cccc(-c2ccccc2)c1 (stereo not drawn) [NCGC00479100-01] |  | 3.99e-06 |  | 8.94 | 8.94
7 | CCOc1ccc(-c2[nH]c3c(C#N)cnn3c2NC2CCCCC2)cc1 [NCGC00119971-02] |  | 1.85e-05 |  |  | 15.9
8 | Cc1nn2c(c1-c1ccnn1C(C)C)N(Cc1ccccc1)CCC2 [NCGC00500003-01] |  | 1.31e-05 |  |  | 8.94
9 | O=C(O)c1ccc(O)c2ncc(NC3CCNCC3)cc12 [NCGC00241037-01] |  | 1.72e-05 |  |  | 14.2
10 | O=C(O)CCNc1cc(N2CCc3ccccc3CC2)nc(-c2cccnc2)n1 [NCGC00351549-01] |  | 2.08e-05 |  | 15.9 | 
11 | Oc1ccc(CCc2ccccc2F)c2cccnc12 [NCGC00184905-01] |  | 1.31e-05 | -5.1986 Log AC50 (M) and -4.7486 Log AC50 (M) | 15.9 | 
12 | COC(=O)c1ccc(O)c2ncc(N3CCN(C)CC3)cc12 [NCGC00241034-01] | -5.2486 Log AC50 (M) and -5.2986 Log AC50 (M) and -4.8486 Log AC50 (M) | 6.09e-06 | -5.2986 Log AC50 (M) and -5.0486 Log AC50 (M) |  | 5.03
13 | O=C(NCCCN1CCCCC1)c1cccc(-c2cc(O)c3ncccc3c2)c1 [NCGC00244529-01] | -4.7986 Log AC50 (M) | 1.04e-05 | -5.0486 Log AC50 (M) | 8.94 | 14.2
14 | CCCN1C(CC(C)C)=N[S+](=O)([O-])c2cc(NC(=O)c3ccccc3)ccc21 [NCGC00510420-01] | -6.0486 Log AC50 (M) and -5.5486 Log AC50 (M) and -5.8486 Log AC50 (M) | 4.48e-07 | -6.5486 Log AC50 (M) and -6.1986 Log AC50 (M) and -6.2986 Log AC50 (M) |  | 
15 | CN(C)CCCN1CCN(C(=O)c2cccc(-c3cc(O)c4ncccc4c3)c2)CC1 [NCGC00247746-01] |  | 1.53e-05 | -4.7486 Log AC50 (M) | 15.9 | 11.3
16 | CC(OCCN1CCCCC1)c1cnn(-c2cc(C(=O)O)ccn2)c1-c1cccc(-c2ccccc2)c1 (stereo not drawn) [NCGC00481287-01] |  | 1.36e-05 |  |  | 15.9
17 | CCc1cccc(C)c1Nc1c(-c2ccc(N(C)C)cc2)nc2ncccn12 [NCGC00107648-03] |  | 1.93e-05 |  |  | 15.9
18 | Oc1ccc(COC2CCN(Cc3ccccc3)C2)c2cccnc12 (stereo not drawn) [NCGC00183382-01] |  | 7.97e-06 | -5.2986 Log AC50 (M) and -5.1986 Log AC50 (M) and -4.7986 Log AC50 (M) |  | 
19 | COC(=O)c1ccnc(-c2cn(C)cn2)c1NC(=O)Cc1ccc(Cl)cc1 [NCGC00420786-01] |  | 1.42e-05 | -5.0486 Log AC50 (M) and -4.7486 Log AC50 (M) |  | 17.8
20 | O=C(N[C@H]1CC(=O)N(c2cc(-c3ccccc3)[nH]n2)C1=O)c1ccccc1 [NCGC00489852-01] |  | 7.1e-10 |  |  | 
21 | COc1ccc(CNC(=O)c2nc([S+](=O)([O-])Cc3ccccc3)ncc2Cl)cc1 [NCGC00117170-03] |  | 1.31e-05 |  |  | 8.94
22 | O=C(O)c1ccc(O)c2ncc(N3CCOCC3)cc12 [NCGC00241036-03] |  | 1.65e-05 | -4.8486 Log AC50 (M) |  | 
23 | O=C(Nc1ccccc1F)c1nc([S+](=O)([O-])Cc2ccccc2F)ncc1Cl [NCGC00117146-03] |  | 1.34e-05 |  |  | 
24 | CN(C)CCCNC(=O)c1ccccc1-c1cc(O)c2ncccc2c1 [NCGC00247753-01] |  | 1.47e-05 |  |  | 

Row | Structure (SMILES) | Individual replicates / Log AC50 (M) [1] | AC50 [2] [M] | Individual replicates / Log AC50 (M) [3] | AC50 [1] [µM] | AC50 [3] [µM]
25 | CN1CCCC1CCOC(c1cccc(-c2ccccc2)c1)c1cc2nccc(C(=O)O)c2s1 (stereo not drawn) [NCGC00481397-01] |  | 1.42e-05 |  |  | 
26 | CCc1c(C)[nH]c2c(-c3cnn(-c4cc(CO)ccn4)c3)cnn2c1=O [NCGC00387307-02] |  | 4.84e-08 |  |  | 
27 | CN(C)CCCNC(=O)c1ccc(-c2cnc3c(O)ccc(C(=O)O)c3c2)cc1 [NCGC00189503-01] |  | 1.93e-05 |  |  | 
28 | Cc1cccc(C)c1Nc1c(-c2cccs2)nc2ncccn12 [NCGC00107923-03] |  | 5.03e-07 |  |  | 
29 | O=C(O)c1ccnc2c(O)cc(N3CCOCC3)cc12 [NCGC00247744-02] |  | 1.5e-07 |  |  | 
30 | COC(=O)CCNc1cc(N2CCCN(C(=O)C(C#N)=C(C)C)CC2)nc(-c2ccccn2)n1 [NCGC00420856-01] |  | 1.42e-05 |  |  | 
31 | O=C(O)c1ccc(O)c2ncc(N3CCN(CCc4ccncc4)CC3)cc12 [NCGC00247761-01] |  | 1e-05 |  |  | 8.94
32 | COCCn1c(C)cc(O)c(C(c2ccc(OC)cc2)N2CCN(c3ccccc3)CC2)c1=O (stereo not drawn) [NCGC00133311-02] |  | 9.29e-06 |  |  | 
33 | O=C(O)c1ccnc2cc(C(OCCCN3CCCC3)c3ccccc3Cl)[nH]c12 (stereo not drawn) [NCGC00421827-01] |  | 4.48e-06 |  |  | 
34 | O=C(NC1CCN(C(=O)c2cc(-c3ccccc3)n[nH]2)C1)c1ccccc1 (stereo not drawn) [NCGC00492307-01] |  | 1.59e-05 |  | 14.2 | 
35 | Cn1ccnc1CCOC(c1cc2nccc(C(=O)O)c2[nH]1)c1ccccc1Cl (stereo not drawn) [NCGC00421835-01] |  | 1.85e-05 |  |  | 15.9
36 | O=C(O)c1ccnc2c(O)cccc12 [NCGC00183785-01] |  | 2e-05 |  |  | 
37 | O=C(O)c1ccnc2cc(C(OCCN3CCCCC3)c3ccccc3Cl)[nH]c12 (stereo not drawn) [NCGC00479257-01] |  | 1.89e-05 |  |  | 
38 | CN1CCC(N2CCCC(CNC(=O)c3cccc(-c4cc(O)c5ncccc5c4)c3)C2)CC1 (stereo not drawn) [NCGC00247748-01] |  | 1.85e-05 |  |  | 
39 | CC(C)c1c(-c2cnn(C(C)(C)C)c2)n2ncc(C#N)c2[nH]c1=O [NCGC00500019-01] |  | 1.53e-05 |  |  | 
40 | O=C(O)c1ccnc(-n2ncc(C(OCCN3CCCCC3)c3ccccc3)c2-c2ccccc2)c1 (stereo not drawn) [NCGC00488202-01] |  | 2.12e-05 |  |  | 
41 | O=C(NC1CCN(c2cc(-c3ccc(Cl)cc3)n[nH]2)C1)c1ccccc1 (stereo not drawn) [NCGC00437928-03] |  | 1.85e-05 |  | 12.6 | 
42 | CC(C)=C(C#N)C(=O)N1CCCN(c2cc(NCCC(=O)O)nc(-c3ccccn3)n2)CC1 [NCGC00420877-01] |  | 1.59e-08 |  |  | 
43 | O=C(N[C@H]1CCN(c2cc(-c3ccc(Cl)cc3)[nH]n2)C1)c1ccccc1 [NCGC00489097-01] |  | 1.19e-05 |  |  | 6.33
44 | OCc1cn(Cc2ccc(O)c3ncccc23)cn1 [NCGC00183377-01] |  | 2.08e-05 |  |  | 
45 | CC1Cc2cc([S+](=O)([O-])NCc3ccc(N(C)C)cc3)ccc2N1C(=O)C1CCC1 (stereo not drawn) [NCGC00124605-03] |  | 1.47e-05 |  | 15.9 | 
46 | O=C(O)c1ccc(O)c2ncc(N3CCC(N4CCOCC4)CC3)cc12 [NCGC00249380-01] |  | 1.47e-05 |  | 17.8 | 
47 | C=C[S+](=O)([O-])N1CCCN(c2cc(NCCC(=O)O)nc(-c3ccccn3)n2)CC1 [NCGC00420874-01] |  | 2.25e-05 |  |  | 
48 | Cc1cccc(CN2CCN(c3cnc4c(O)ccc(C(=O)O)c4c3)CC2)c1 [NCGC00249381-01] |  | 1.78e-05 |  |  | 15.9
